{"source": "patent US10758534B2", "about": "(Vertex Pharmaceuticals Incorporated, priority 2014, dated 2020)", "biological_target": "T1, F508del (Homo sapiens, UniProt P13569, DEL508-508)", "T1 construct": "expressed in transfected cells", "T1 sequence (P13569 with tags, fused parts or gaps DEL508-508)": "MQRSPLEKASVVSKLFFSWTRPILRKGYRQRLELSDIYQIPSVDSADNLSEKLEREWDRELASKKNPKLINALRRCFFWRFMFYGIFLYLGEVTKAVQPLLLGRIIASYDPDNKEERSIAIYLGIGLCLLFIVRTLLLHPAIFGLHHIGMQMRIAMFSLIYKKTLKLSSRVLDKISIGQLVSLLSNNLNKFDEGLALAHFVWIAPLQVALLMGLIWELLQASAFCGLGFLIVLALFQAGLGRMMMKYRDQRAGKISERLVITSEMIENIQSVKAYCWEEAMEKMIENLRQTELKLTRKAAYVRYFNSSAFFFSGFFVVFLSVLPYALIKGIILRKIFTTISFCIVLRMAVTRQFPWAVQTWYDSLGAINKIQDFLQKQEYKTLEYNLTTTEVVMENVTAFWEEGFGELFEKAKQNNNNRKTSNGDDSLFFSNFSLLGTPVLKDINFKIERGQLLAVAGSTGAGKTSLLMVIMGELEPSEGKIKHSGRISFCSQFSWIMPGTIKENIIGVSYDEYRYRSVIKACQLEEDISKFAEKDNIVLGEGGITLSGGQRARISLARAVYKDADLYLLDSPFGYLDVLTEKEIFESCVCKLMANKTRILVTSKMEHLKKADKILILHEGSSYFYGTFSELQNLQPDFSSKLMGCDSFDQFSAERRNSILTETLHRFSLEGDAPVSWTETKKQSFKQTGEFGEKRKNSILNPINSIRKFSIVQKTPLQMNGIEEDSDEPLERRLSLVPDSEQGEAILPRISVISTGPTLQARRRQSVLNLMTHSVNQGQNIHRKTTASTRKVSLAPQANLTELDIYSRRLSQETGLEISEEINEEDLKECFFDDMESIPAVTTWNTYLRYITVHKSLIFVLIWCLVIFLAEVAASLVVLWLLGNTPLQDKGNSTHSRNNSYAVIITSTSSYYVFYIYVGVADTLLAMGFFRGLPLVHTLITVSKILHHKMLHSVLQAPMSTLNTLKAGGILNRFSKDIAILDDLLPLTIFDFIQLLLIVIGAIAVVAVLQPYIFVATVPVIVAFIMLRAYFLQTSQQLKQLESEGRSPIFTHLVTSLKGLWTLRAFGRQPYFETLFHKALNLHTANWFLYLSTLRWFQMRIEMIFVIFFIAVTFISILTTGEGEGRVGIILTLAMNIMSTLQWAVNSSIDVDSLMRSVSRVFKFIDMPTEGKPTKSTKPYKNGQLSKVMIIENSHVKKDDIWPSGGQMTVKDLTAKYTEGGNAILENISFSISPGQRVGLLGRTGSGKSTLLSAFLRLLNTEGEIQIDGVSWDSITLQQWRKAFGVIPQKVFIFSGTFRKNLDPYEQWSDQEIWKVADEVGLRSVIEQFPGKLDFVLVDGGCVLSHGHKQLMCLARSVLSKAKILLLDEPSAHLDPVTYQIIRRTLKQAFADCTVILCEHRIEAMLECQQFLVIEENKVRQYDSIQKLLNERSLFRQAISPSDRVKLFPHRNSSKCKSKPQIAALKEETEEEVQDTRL", "test": "Protocol 2: FRET membrane potential optical assay (VIPR), identification of correction compounds", "format": "cell-based", "conditions": "F508del CFTR modulator activity; compounds of Table 1; read-out: EC30", "outline": "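NIH3T3 mouse fibroblasts stably expressing F508del were treated with test compound for 16 hrs at 37° C. in serum-free medium; 27° C. incubation served as positive control. F508del was activated with 10 μM forskolin plus 20 μM genistein in Cl^−-free medium, and Cl^− efflux-driven depolarization was read by DiSBAC2(3)/CC2-DMPE FRET.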", "data": [{"smiles": "C[C@@H]1CN(c2nc(C(C)(C)C)c(C3=CCN(C(=O)CC4CCCCC4)CC3)cc2C(=O)NS(=O)(=O)c2cccc(N)n2)C(C)(C)C1", "note": "[Compound 2596, N-[(6-amino-2-pyridyl)sulfonyl]-6-tert-butyl-5-[1-(2-cyclohexylacetyl)-3,6-dihydro-2H-pyridin-4-yl]-2-[(4S)-2,2,4-trimethylpyrrolidin-1-yl]pyridine-3-carboxamide]", "values": [{"measurement": "EC30", "value": "< 3", "unit": "µM"}]}, {"smiles": "CC1CN(c2ncccc2C(=O)NS(=O)(=O)c2cccc(NCc3ccco3)n2)C(C)(C)C1", "note": "(stereo not drawn) [Compound 2597, N—[[6-(2-furylmethylamino)-2-pyridyl]sulfonyl]-2-(2,2,4-trimethylpyrrolidin-1-yl)pyridine-3-carboxamide]", "values": [{"measurement": "EC30", "value": "3 to 10", "unit": "µM"}]}, {"smiles": "CC1CN(c2ncccc2C(=O)NS(=O)(=O)c2cccc(Oc3cc(Cl)ccc3F)n2)C(C)(C)C1", "note": "(stereo not drawn) [Compound 2598, N—[[6-(5-chloro-2-fluoro-phenoxy)-2-pyridyl]sulfonyl]-2-(2,2,4-trimethylpyrrolidin-1-yl)pyridine-3-carboxamide]", "values": [{"measurement": "EC30", "value": "< 3", "unit": "µM"}]}, {"smiles": "Nc1cccc(S(=O)(=O)NC(=O)c2cccnc2NC2CCCCC2C2CCCCC2)n1", "note": "(stereo not drawn) [Compound 2599, N-[(6-amino-2-pyridyl)sulfonyl]-2-[(2-cyclohexylcyclohexyl)amino]pyridine-3-carboxamide]", "values": [{"measurement": "EC30", "value": "3 to 10", "unit": "µM"}]}, {"smiles": "CC1CN(c2ncccc2C(=O)NS(=O)(=O)c2cccc(OCc3cccc(-n4cccc4)c3)n2)C(C)(C)C1", "note": "(stereo not drawn) [Compound 2600, N—[[6-[(3-pyrrol-1-ylphenyl)methoxy]-2-pyridyl]sulfonyl]-2-(2,2,4-trimethylpyrrolidin-1-yl)pyridine-3-carboxamide]", "values": [{"measurement": "EC30", "value": "< 3", "unit": "µM"}]}, {"smiles": "CC1CN(c2ncccc2C(=O)NS(=O)(=O)c2cccc(N3CCN(C4CCCCC4)CC3)n2)C(C)(C)C1", "note": "(stereo not drawn) [Compound 2601, N—[[6-(4-cyclohexylpiperazin-1-yl)-2-pyridyl]sulfonyl]-2-(2,2,4-trimethylpyrrolidin-1-yl)pyridine-3-carboxamide]", "values": [{"measurement": "EC30", "value": "3 to 10", "unit": "µM"}]}, {"smiles": "CCCOCCNc1cccc(S(=O)(=O)NC(=O)c2cccnc2N2CC(C)CC2(C)C)n1", "note": "(stereo not drawn) [Compound 2602, N—[[6-(2-propoxyethylamino)-2-pyridyl]sulfonyl]-2-(2,2,4-trimethylpyrrolidin-1-yl)pyridine-3-carboxamide]", "values": [{"measurement": "EC30", "value": "3 to 10", "unit": "µM"}]}, {"smiles": "C[C@@H]1CN(c2nc(-n3cc(OCC(C)(C)C)cn3)ccc2C(=O)NS(=O)(=O)c2cccc(N)n2)C(C)(C)C1", "note": "[Compound 2603, N-[(6-amino-2-pyridyl)sulfonyl]-6-[4-(2,2-dimethylpropoxy)pyrazol-1-yl]-2-[(4S)-2,2,4-trimethylpyrrolidin-1-yl]pyridine-3-carboxamide]", "values": [{"measurement": "EC30", "value": "< 3", "unit": "µM"}]}, {"smiles": "Cc1ccc(-c2ccc(C(=O)NS(=O)(=O)N3CC[C@H](N)C3)c(N3C[C@@H](C)CC3(C)C)n2)cc1C", "note": "[Compound 2605, N-[(3S)-3-aminopyrrolidin-1-yl]sulfonyl-6-(3,4-dimethylphenyl)-2-[(4S)-2,2,4-trimethylpyrrolidin-1-yl]pyridine-3-carboxamide]", "values": [{"measurement": "EC30", "value": "3 to 10", "unit": "µM"}]}, {"smiles": "COc1ccc(F)c(-c2ccc(C(=O)NS(=O)(=O)c3ccc[nH]c3=O)c(N3C[C@@H](C)CC3(C)C)n2)c1", "note": "[Compound 2606, 6-(2-fluoro-5-methoxy-phenyl)-N-[(2-oxo-1H-pyridin-3-yl)sulfonyl]-2-[(4S)-2,2,4-trimethylpyrrolidin-1-yl]pyridine-3-carboxamide]", "values": [{"measurement": "EC30", "value": "< 3", "unit": "µM"}]}, {"smiles": "COc1cc(C)c(-c2ccc(C(=O)NS(=O)(=O)c3cccnc3N)c(N3C[C@@H](C)CC3(C)C)n2)c(C)c1", "note": "[Compound 2607, N-[(2-amino-3-pyridyl)sulfonyl]-6-(4-methoxy-2,6-dimethyl-phenyl)-2-[(4S)-2,2,4-trimethylpyrrolidin-1-yl]pyridine-3-carboxamide]", "values": [{"measurement": "EC30", "value": "< 3", "unit": "µM"}]}, {"smiles": "CC(C)Oc1c(F)cc(-c2ccc(C(=O)NS(=O)(=O)c3cccc(N)n3)c(N3C[C@@H](C)CC3(C)C)n2)cc1F", "note": "[Compound 2608, N-[(6-amino-2-pyridyl)sulfonyl]-6-(3,5-difluoro-4-isopropoxy-phenyl)-2-[(4S)-2,2,4-trimethylpyrrolidin-1-yl]pyridine-3-carboxamide]", "values": [{"measurement": "EC30", "value": "< 3", "unit": "µM"}]}, {"smiles": "CC1CN(c2ncccc2C(=O)NS(=O)(=O)c2cccc(N3CCCC3C)n2)C(C)(C)C1", "note": "(stereo not drawn) [Compound 2609, N—[[6-(2-methylpyrrolidin-1-yl)-2-pyridyl]sulfonyl]-2-(2,2,4-trimethylpyrrolidin-1-yl)pyridine-3-carboxamide]", "values": [{"measurement": "EC30", "value": "< 3", "unit": "µM"}]}, {"smiles": "C#Cc1ccc(COc2cccc(S(=O)(=O)NC(=O)c3cccnc3N3CC(C)CC3(C)C)n2)cc1", "note": "(stereo not drawn) [Compound 2610, N—[[6-[(4-ethynylphenyl)methoxy]-2-pyridyl]sulfonyl]-2-(2,2,4-trimethylpyrrolidin-1-yl)pyridine-3-carboxamide]", "values": [{"measurement": "EC30", "value": "< 3", "unit": "µM"}]}, {"smiles": "CC1CN(c2ncccc2C(=O)NS(=O)(=O)c2cccc(Oc3ccc4ccccc4c3)n2)C(C)(C)C1", "note": "(stereo not drawn) [Compound 2611, N—[[6-(2-naphthyloxy)-2-pyridyl]sulfonyl]-2-(2,2,4-trimethylpyrrolidin-1-yl)pyridine-3-carboxamide]", "values": [{"measurement": "EC30", "value": "< 3", "unit": "µM"}]}, {"smiles": "CCC(C)(C)C(=O)N1CCC=C(c2ccc(C(=O)NS(=O)(=O)c3cccc(N)n3)c(N3C[C@@H](C)CC3(C)C)n2)C1", "note": "[Compound 2612, N-[(6-amino-2-pyridyl)sulfonyl]-6-[1-(2,2-dimethylbutanoyl)-3,6-dihydro-2H-pyridin-5-yl]-2-[(4S)-2,2,4-trimethylpyrrolidin-1-yl]pyridine-3-carboxamide]", "values": [{"measurement": "EC30", "value": "3 to 10", "unit": "µM"}]}, {"smiles": "Cc1ccc(-c2ccc(C(=O)NS(=O)(=O)c3cccnc3N)c(N3C[C@@H](C)CC3(C)C)n2)c(F)c1", "note": "[Compound 2613, N-[(2-amino-3-pyridyl)sulfonyl]-6-(2-fluoro-4-methyl-phenyl)-2-[(4S)-2,2,4-trimethylpyrrolidin-1-yl]pyridine-3-carboxamide]", "values": [{"measurement": "EC30", "value": "< 3", "unit": "µM"}]}, {"smiles": "COc1cc(-c2ccc(C(=O)NS(=O)(=O)c3cccnc3N)c(N3C[C@@H](C)CC3(C)C)n2)ccc1O", "note": "[Compound 2614, N-[(2-amino-3-pyridyl)sulfonyl]-6-(4-hydroxy-3-methoxy-phenyl)-2-[(4S)-2,2,4-trimethylpyrrolidin-1-yl]pyridine-3-carboxamide]", "values": [{"measurement": "EC30", "value": "3 to 10", "unit": "µM"}]}, {"smiles": "Cc1c(F)cccc1-c1ccc(C(=O)NS(=O)(=O)c2cccc(N)n2)c(N2C[C@@H](C)CC2(C)C)n1", "note": "[Compound 2616, N-[(6-amino-2-pyridyl)sulfonyl]-6-(3-fluoro-2-methyl-phenyl)-2-[(4S)-2,2,4-trimethylpyrrolidin-1-yl]pyridine-3-carboxamide]", "values": [{"measurement": "EC30", "value": "< 3", "unit": "µM"}]}, {"smiles": "CCOc1cccc(S(=O)(=O)NC(=O)c2cccnc2N2CC(C)CC2(C)C)n1", "note": "(stereo not drawn) [Compound 2617, N-[(6-ethoxy-2-pyridyl)sulfonyl]-2-(2,2,4-trimethylpyrrolidin-1-yl)pyridine-3-carboxamide]", "values": [{"measurement": "EC30", "value": "3 to 10", "unit": "µM"}]}, {"smiles": "CC1CN(c2ncccc2C(=O)NS(=O)(=O)c2cccc(OCc3ccc(C(F)(F)F)cc3)n2)C(C)(C)C1", "note": "(stereo not drawn) [Compound 2618, N—[[6-[[4-(trifluoromethyl)phenyl]methoxy]-2-pyridyl]sulfonyl]-2-(2,2,4-trimethylpyrrolidin-1-yl)pyridine-3-carboxamide]", "values": [{"measurement": "EC30", "value": "< 3", "unit": "µM"}]}, {"smiles": "CC1CN(c2ncccc2C(=O)NS(=O)(=O)c2cccc(OCc3ccccc3)n2)C(C)(C)C1", "note": "(stereo not drawn) [Compound 2619, N-[(6-benzyloxy-2-pyridyl)sulfonyl]-2-(2,2,4-trimethylpyrrolidin-1-yl)pyridine-3-carboxamide]", "values": [{"measurement": "EC30", "value": "< 3", "unit": "µM"}]}, {"smiles": "CCCCN1CCCN(c2cccc(S(=O)(=O)NC(=O)c3cccnc3N3CC(C)CC3(C)C)n2)CC1", "note": "(stereo not drawn) [Compound 2620, N—[[6-(4-butyl-1,4-diazepan-1-yl)-2-pyridyl]sulfonyl]-2-(2,2,4-trimethylpyrrolidin-1-yl)pyridine-3-carboxamide]", "values": [{"measurement": "EC30", "value": "3 to 10", "unit": "µM"}]}, {"smiles": "CC1CN(c2ncccc2C(=O)NS(=O)(=O)c2cccc(N3CCN(c4ncccn4)CC3)n2)C(C)(C)C1", "note": "(stereo not drawn) [Compound 2621, N—[[6-(4-pyrimidin-2-ylpiperazin-1-yl)-2-pyridyl]sulfonyl]-2-(2,2,4-trimethylpyrrolidin-1-yl)pyridine-3-carboxamide]", "values": [{"measurement": "EC30", "value": "3 to 10", "unit": "µM"}]}, {"smiles": "CC(C)OC(=O)N1CCC=C(c2ccc(C(=O)NS(=O)(=O)c3cccc(N)n3)c(N3C[C@@H](C)CC3(C)C)n2)C1", "note": "[Compound 2622, isopropyl 5-[5-[(6-amino-2-pyridyl)sulfonylcarbamoyl]-6-[(4S)-2,2,4-trimethylpyrrolidin-1-yl]-2-pyridyl]-3,6-dihydro-2H-pyridine-1-carboxylate]", "values": [{"measurement": "EC30", "value": "< 3", "unit": "µM"}]}, {"smiles": "CC(C)Oc1ccccc1-c1ccc(C(=O)NS(=O)(=O)c2cccnc2N)c(N2C[C@@H](C)CC2(C)C)n1", "note": "[Compound 2623, N-[(2-amino-3-pyridyl)sulfonyl]-6-(2-isopropoxyphenyl)-2-[(4S)-2,2,4-trimethylpyrrolidin-1-yl]pyridine-3-carboxamide]", "values": [{"measurement": "EC30", "value": "3 to 10", "unit": "µM"}]}, {"smiles": "CC(C)OC(=O)Nc1cccc(S(=O)(=O)NC(=O)c2ccc(C3=CCCNC3)nc2N2C[C@@H](C)CC2(C)C)n1", "note": "[Compound 2624, isopropyl N—[6-[[6-(1,2,3,6-tetrahydropyridin-5-yl)-2-[(4S)-2,2,4-trimethylpyrrolidin-1-yl]pyridine-3-carbonyl]sulfamoyl]-2-pyridyl]carbamate]", "values": [{"measurement": "EC30", "value": "3 to 10", "unit": "µM"}]}, {"smiles": "CC1CN(c2ncccc2C(=O)NS(=O)(=O)c2cccc(OCCc3ccccc3F)n2)C(C)(C)C1", "note": "(stereo not drawn) [Compound 2625, N—[[6-[2-(2-fluorophenyl)ethoxy]-2-pyridyl]sulfonyl]-2-(2,2,4-trimethylpyrrolidin-1-yl)pyridine-3-carboxamide]", "values": [{"measurement": "EC30", "value": "< 3", "unit": "µM"}]}, {"smiles": "Cc1cc(C)cc(-c2ccc(C(=O)NS(=O)(=O)c3ccc[nH]c3=O)c(N3C[C@@H](C)CC3(C)C)n2)c1", "note": "[Compound 2626, 6-(3,5-dimethylphenyl)-N-[(2-oxo-1H-pyridin-3-yl)sulfonyl]-2-[(4S)-2,2,4-trimethylpyrrolidin-1-yl]pyridine-3-carboxamide]", "values": [{"measurement": "EC30", "value": "< 3", "unit": "µM"}]}, {"smiles": "CC1CN(c2ncccc2C(=O)NS(=O)(=O)c2cccc(OCC3OCc4ccccc4O3)n2)C(C)(C)C1", "note": "(stereo not drawn) [Compound 2627, N—[[6-(4H-1,3-benzodioxin-2-ylmethoxy)-2-pyridyl]sulfonyl]-2-(2,2,4-trimethylpyrrolidin-1-yl)pyridine-3-carboxamide]", "values": [{"measurement": "EC30", "value": "< 3", "unit": "µM"}]}]}
